From publication PMC12298539, “Applying Unbiased, Functional Criteria Allows Selection of Novel Cyclic Peptides for Effective Targeted Drug Delivery to Malignant Prostate Cancer Cells” (Pharmaceutics, 2025)

Experiments:
[1] = tested on: Estramustine-resistant DU145; assay: Growth inhibition IC50, Estramustine-resistant line; type: cell-based; details: Homo sapiens, DU-145
Method: (§1) PrC cell lines resistant to Estramustine (ESM) were developed as the clinical use of this drug induces significant side effects and drug resistance. The procedure of Mohr was used as described in the Supplementary Information.
(§2) Supplementary Information
(§3) Development of drug resistant cell lines
(§4) Cells were seeded in 3 flasks. […]
(§5) parent cell line was calculated. […]
(§6) to the drug within 2–4 weeks.
(§7) Table S1: IC50 values for parent and Estramustine-resistant prostate cancer cell lines are also multidrug re-sistant to Camptothecin and Docetaxel. Drugs
(§8) Estramustine Camptothecin Docetaxel […]

[2] = tested on: Estramustine-resistant PC3; assay: as above; type: cell-based; details: Homo sapiens
Method: as §1, §2, §3, §4, §5, §6, §7, §8

[3] = tested on: Estramustine-resistant 22RV1; assay: as above; type: cell-based; details: Homo sapiens; 22RV1 Estramustine-resistant line
Method: as §1, §2, §3, §4, §5, §6, §7, §8

PC3 = assay: Growth inhibition IC50, parent line; type: cell-based; details: Homo sapiens, PC-3
Method: as §1, §2, §3, §4, §5, §6, §7, §8

22RV1 = assay: Growth inhibition IC50, parent line; type: cell-based; details: Homo sapiens; 22RV1 parent line
Method: as §1, §2, §3, §4, §5, §6, §7, §8

DU145 = assay: Growth inhibition IC50, parent line; type: cell-based; details: Homo sapiens, DU-145
Method: as §1, §2, §3, §4, §5, §6, §7, §8

PrC cell lines = assay: Dose-response of PrC cell lines to ESM; type: cell-based; details: Homo sapiens; range over the PrC cell lines, Figure S2; read-out: IC50s for ESM
Method: as §1
ESM-resistant lines developed following more than 6 months of exposure to the drug.
as §2, §3
Cells were seeded in 3 flasks.
parent cell line was calculated.
as §6

PC3 tumors = assay: Xenograft anti-tumor efficacy; type: in vivo, athymic nu/nu mice; details: 5 mg/kg, tail vein, twice weekly for four weeks, n = 5
Method: As described above, a xenograft tumor model was established by injecting mice with PC3 cells. Tumor growth was monitored regularly, and mice were randomized into one of four groups (n = 5 per group) when their tumor volume reached approximately 140 mm^3 (approx. day 16 post-injection) so as to ensure the equal distribution of tumor burden among the groups. The mice were treated twice weekly for four weeks via tail vein injection as follows. Group 1 (Control) received vehicle only; Group 2 (free SN-38) received SN38 at a dose of 5 mg/kg; Group 3 (PDC 10 mg/kg) received PrC10-SN38 at a dose of 10 mg/kg; Group 4 (PDC 20 mg/kg) received PrC10-SN38 at a dose of 20 mg/kg. Tumor volume was measured regularly until day 44 from the initiation of treatment, after which all mice were euthanized via CO2 inhalation.

Structure (SMILES) | IC50 [1] | IC50 [2] | IC50 [3] | IC50 (PC3) | IC50 (22RV1) | IC50 (DU145) | IC50 (PrC cell lines) | tumor growth (PC3 tumors)
CC[C@@]1(O)C(=O)OCc2c1cc1n(c2=O)Cc2cc3ccccc3nc2-1 [Camptothecin] | 100 nM | 200 nM | 23 nM | 45 nM | 7 nM | 10 nM |  | 
CC(=O)O[C@@]12CO[C@@H]1C[C@H](O)[C@@]1(C)C(=O)[C@H](O)C3=C(C)[C@@H](OC(=O)[C@H](O)[C@@H](NC(=O)OC(C)(C)C)c4ccccc4)C[C@@](O)([C@@H](OC(=O)c4ccccc4)[C@H]21)C3(C)C [Docetaxel] | 5 nM | 10 nM | 4 nM | 4 nM | 3 nM | 3 nM |  | 
C[C@]12CC[C@@H]3c4ccc(OC(=O)N(CCCl)CCCl)cc4CC[C@H]3[C@@H]1CC[C@@H]2O [Estramustine] | 8000 nM | 24000 nM | 30000 nM | 10000 nM | 8000 nM | 8000 nM | 1400 to 1750 nM | 
CCc1c2c(nc3ccc(O)cc13)-c1cc3c(c(=O)n1C2)COC(=O)[C@]3(O)CC [free SN-38, SN-38] |  |  |  |  |  |  |  | did not inhibit tumor growth
